Results on one compound are retold here after patent US10781229B2, “Tris- or neopentyl glycol-based amphiphiles and uses thereof” (Industry-University Cooperation Foundation Hanyang …, priority 2015, dated 2020).

“Also recorded” adds a separate entry of the source.

In assay [1] the test system is leucine transporter (LeuT). The assay is described as follows: LeuT stability by [3H]-Leu scintillation proximity assay (SPA). The format is biochemical, Aquifex aeolicus. Here is the method:
Experiments to measure the structural stability of a leucine transporter (LeuT) protein by TDTs or NDTs were conducted. LeuT protein activity was measured by scintillation proximity assay (SPA) utilizing [^3H]-Leu as a ligand. The concentration of TDTs, NDTs, or DDM was (a) CMC+0.04% by weight, or (b) CMC+[…].
In particular, the LeuT stability measurement experiments were conducted according to the following methods. Depending upon the results of UapA and MelB, only TDT-C11, TDT-C12, NDT-C10, NDT-C11 and NDT-C12 among the amphipathic molecules according to the present invention were selectively used. In accordance with a method disclosed in a paper published by G. Deckert, et al. (Nature 1998, 392, 353-358), a wild-type leucine transporter (LeuT) was purified from Aquifex aeolicus. LeuT is expressed in E. coli C41 (DE3) transformed with pET16b encoding a C-terminal 8×His-tagged transporter (the expression plasmid was provided by Dr E. Gouaux, Vollum Institute, Portland, Oreg., USA). In summary, the […] protein was isolated and solubilized with 1.0% by weight of DDM, followed by binding the protein to a Ni^2+-NTA resin (Life Technologies, Denmark) and eluting the same with 20 mM Tris-HCl (pH 8.0), 1 mM NaCl, 199 mM KCl, 0.05% DDM, and 300 mM imidazole. Next, about 1.5 mg/ml of a protein stock was 10-fold diluted with a buffer in which DDM and imidazole are absent, but TDTs, NDTs, or DDM (control) is supplemented such that a final concentration becomes CMC+0.04% by weight or CMC+0.2% by weight. Protein samples were stored at room temperature and centrifuged at a predetermined time. To evaluate protein activity, [^3H]-Leu coupling was measured using scintillation proximity assay (SPA) (M. Quick et al., Proc. Natl, Acad. Sci. U.S.A. 2007, 104, 3603-3608). 5 μL of each protein sample dissolved in a buffer that contained 200 mM NaCl and each test compound was analyzed. SPA reaction was carried out in the presence of 20 nM [^3H]-Leu and copper chelate (His-Tag) YSi beads (both purchased from PerkinElmer, Denmark). [^3H]-Leu coupling was measured by means of a MicroBeta liquid scintillation counter (PerkinElmer).

The target of assay [2] is T1, uric acid-xanthine/H+ symporter (UapA) (Emericella nidulans, UniProt Q07307, G411V).
T1 construct: GFP; made in house; host or cells: Saccharomyces cerevisiae FGY217
Nature of the assay: UapA structural stability by CPM assay. More on the design: species or system Aspergillus nidulans. Conditions: 40° C. Here is the method: Experiments to measure the structural stability of a uric acid-xanthine/H+ symporter (UapA) due to TDTs or NDTs in an aqueous solution were conducted. The structural stability of UapA was measured using CPM assay, and the concentrations of TDTs, NDTs, and DDM concentration were CMC+0.04% by weight.
In particular, UapA protein is a uric acid-xanthine/H+ symporter in Aspergillus nidulans). The stability of the protein was measured using N-[4-(7-Diethylamino-4-methyl-3-coumarinyl)phenyl]maleimide (CPM), as a sulfhydryl-specific fluorophore, by means of a fluorescence spectrophotometer. A free sulfhydryl group of a cysteine residue is present within the center of the protein but may be present near a solvent due to unfolding of the protein. CPM becomes fluorescent by reaction with free thiol and, accordingly, functions as a sensor of unfolding. […] The reaction was monitored at 40° C. for 120 minutes by means of a microplate spectrofluorometer. So as to calculate a ratio of folded proteins relative to remaining proteins after being maintained at 40° C. for […], relative maximum fluorescence was used. […]

T1 sequence (Q07307 12-574 G411V): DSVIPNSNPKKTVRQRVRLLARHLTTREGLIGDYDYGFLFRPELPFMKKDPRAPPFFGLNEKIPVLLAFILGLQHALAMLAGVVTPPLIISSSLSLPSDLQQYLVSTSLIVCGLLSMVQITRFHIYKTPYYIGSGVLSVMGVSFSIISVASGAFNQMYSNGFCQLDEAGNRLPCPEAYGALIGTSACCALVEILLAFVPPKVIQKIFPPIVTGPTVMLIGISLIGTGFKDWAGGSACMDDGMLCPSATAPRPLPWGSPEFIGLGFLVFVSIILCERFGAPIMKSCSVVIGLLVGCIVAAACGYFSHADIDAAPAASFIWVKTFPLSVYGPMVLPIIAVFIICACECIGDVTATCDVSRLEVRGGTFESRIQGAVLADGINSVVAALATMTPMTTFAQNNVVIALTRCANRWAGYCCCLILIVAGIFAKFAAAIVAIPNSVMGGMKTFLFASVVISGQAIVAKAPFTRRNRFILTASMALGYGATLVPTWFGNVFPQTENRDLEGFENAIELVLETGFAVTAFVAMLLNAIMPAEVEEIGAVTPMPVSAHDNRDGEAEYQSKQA

For the compound `CCCCCCCCCCCC(CCCCCCCCCCC)COCC(CO[C@@H]1OC(CO)[C@@H](O)C(O)C1O)(CO[C@@H]1OC(CO)[C@@H](O)C(O)C1O)CO[C@@H]1OC(CO)[C@@H](O)C(O)C1O` (stereo partly shown) [NDT-C11], the “LeuT protein stabilization ability ([3H]-Leu binding)” value in assay [1] (CMC+0.04% by weight, room temperature) was “most excellent”. Besides, the “LeuT protein stabilization, overall comparison” value in assay [1] (conclusion) is “superior to DDM and similar to MNG-3”. The results for the “UapA protein structural stability (amount of folded protein)” value in assay [2] (CMC+0.04% by weight) and in assay [2] (CMC+0.2% by weight) were “most excellent” and “most excellent; also recorded: superior to those of MNG-3”, respectively.
